Laboratory results as given in ChEMBL document CHEMBL1201862, “PubChem BioAssay data set” (2004).
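Cultured in 96-well plates, cells were exposed to test compound for 48 hours across five concentrations. The concentration for 50% growth inhibition is given as GI50.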 Active and inactive are the calls of the source. Cut-off read from the data, not from the text of the source: active = GI50 up to about 1.1 µM and inactive = higher.

How the values were obtained:
Assay in all cases: growth of human tumour cells (NCI), 48 h
UACC-257 = test system: UACC-257
HL-60 = test system: HL-60
LOX IMVI = test system: LOX IMVI
SK-OV-3 = test system: SK-OV-3
RPMI-8226 = test system: RPMI-8226
ACHN = test system: ACHN
HCT-116 = test system: HCT-116
HCC 2998 = test system: HCC 2998
SN12C = test system: SN12C
HOP-92 = test system: HOP-92
SNB-75 = test system: SNB-75
SR = test system: SR
NCI-H226 = test system: NCI-H226
UO-31 = test system: UO-31
CAKI-1 = test system: CAKI-1
DU-145 = test system: DU-145
M14 = test system: M14
SF-268 = test system: SF-268
SK-MEL-2 = test system: SK-MEL-2
U-251 = test system: U-251

Row | Compound | GI50 (UACC-257) | GI50 (HL-60) | GI50 (LOX IMVI) | GI50 (SK-OV-3) | GI50 (RPMI-8226) | GI50 (ACHN) | GI50 (HCT-116) | GI50 (HCC 2998) | GI50 (SN12C) | GI50 (HOP-92) | GI50 (SNB-75) | GI50 (SR) | GI50 (NCI-H226) | GI50 (UO-31) | GI50 (CAKI-1) | GI50 (DU-145) | GI50 (M14) | GI50 (SF-268) | GI50 (SK-MEL-2) | GI50 (U-251)
1 | C=CCNC(=O)NC(=O)CSC1=NC(=O)C2(NN1)c1ccccc1-c1ccccc12 | > 10 µM (inactive) | > 10 µM (inactive) | > 10 µM (inactive) | > 10 µM (inactive) | > 10 µM (inactive) | > 10 µM (inactive) | > 10 µM (inactive) | > 10 µM (inactive) | > 10 µM (inactive) | > 10 µM (inactive) | > 10 µM (inactive) | > 10 µM (inactive) | > 10 µM (inactive) | 9.62 µM (inactive) | > 10 µM (inactive) | > 10 µM (inactive) | > 10 µM (inactive) | > 10 µM (inactive) |  | 
2 | Cc1ccc2nc(C(=O)O)c(=O)[nH]c2c1 | > 100 µM (inactive) | > 100 µM (inactive) | > 100 µM (inactive) | > 100 µM (inactive) | > 100 µM (inactive) | > 100 µM (inactive) | > 100 µM (inactive) | > 100 µM (inactive) | > 100 µM (inactive) | > 100 µM (inactive) |  | > 100 µM (inactive) | > 100 µM (inactive) | > 100 µM (inactive) | > 100 µM (inactive) | > 100 µM (inactive) | > 100 µM (inactive) | > 100 µM (inactive) | > 100 µM (inactive) | > 100 µM (inactive)
3 | O=C1NC(N2CCCCC2)=N/C1=C\c1ccc(Cl)cc1 | 36.6 µM (inactive) | > 100 µM (inactive) | 34.5 µM (inactive) | > 100 µM (inactive) | 66.2 µM (inactive) | 36.4 µM (inactive) | 26.5 µM (inactive) | 19.8 µM (inactive) | 72.6 µM (inactive) | 13 µM (inactive) |  | > 100 µM (inactive) | 22.3 µM (inactive) | 34.7 µM (inactive) | > 100 µM (inactive) | 44.1 µM (inactive) | 66.8 µM (inactive) | 38.2 µM (inactive) | > 100 µM (inactive) | 44.5 µM (inactive)
4 | COC(=O)C1=C(C)NC(=O)N2[C@@H](CCOCc3ccccc3)CC[C@@H]12 | > 50 µM (inactive) | > 50 µM (inactive) | > 50 µM (inactive) | > 50 µM (inactive) | > 50 µM (inactive) | > 50 µM (inactive) |  | > 50 µM (inactive) |  | > 50 µM (inactive) | 25 µM (inactive) | > 50 µM (inactive) | > 50 µM (inactive) | > 50 µM (inactive) | > 50 µM (inactive) | > 50 µM (inactive) | > 50 µM (inactive) | > 50 µM (inactive) | > 50 µM (inactive) | > 50 µM (inactive)
5 | CC1=C[C@@H](C)C[C@]2(C)CC[C@H](O2)[C@]23CC[C@](C)(C[C@H](O2)[C@@H]2O[C@@](C)(CC2=O)[C@@H](O)[C@H]2CC[C@@]4(CCC[C@@H](O4)[C@H](C)C(=O)O[C@H]4C[C@H]([C@]5(O)OCC[C@H](C)[C@@H]5O)O[C@H]4C=C1)O2)O3 | 0.0148 µM (active) | 0.0346 µM (active) | < 0.001 µM (active) | 0.00757 µM (active) |  | 0.00473 µM (active) | 0.00826 µM (active) | 0.075 µM (active) |  | 0.00159 µM (active) | < 0.001 µM (active) | 0.00157 µM (active) | 0.00157 µM (active) | 0.00408 µM (active) | < 0.001 µM (active) | 0.0601 µM (active) | 0.00527 µM (active) | 0.002 µM (active) | 0.383 µM (active) | 0.0146 µM (active)
6 | BrC1(c2ccccc2)C[n+]2c(-c3ccccc3)cc(-c3ccccc3)cc2-c2ccccc21 (centres undefined) | 0.233 µM (active) | 0.168 µM (active) | 0.363 µM (active) |  | 0.127 µM (active) | 1.42 µM (inactive) | 0.365 µM (active) | 0.111 µM (active) | 3.88 µM (inactive) | 0.664 µM (active) | 0.236 µM (active) | 0.611 µM (active) | 0.659 µM (active) | 1.35 µM (inactive) | 3.66 µM (inactive) | 0.931 µM (active) | 0.499 µM (active) | 0.409 µM (active) | 0.317 µM (active) | 0.226 µM (active)
7 | O=c1c2cc([N+](=O)[O-])ccc2n2n1CCCC2 | > 100 µM (inactive) | > 100 µM (inactive) | > 100 µM (inactive) | > 100 µM (inactive) | > 100 µM (inactive) | > 100 µM (inactive) | > 100 µM (inactive) | > 100 µM (inactive) | > 100 µM (inactive) | > 100 µM (inactive) | > 100 µM (inactive) | > 100 µM (inactive) | > 100 µM (inactive) | 71.3 µM (inactive) | > 100 µM (inactive) | > 100 µM (inactive) | > 100 µM (inactive) | > 100 µM (inactive) |  | > 100 µM (inactive)
8 | CN(C)C1(C(=O)O)CC1 | > 100 µM (inactive) | > 100 µM (inactive) | > 100 µM (inactive) |  | > 100 µM (inactive) | > 100 µM (inactive) | > 100 µM (inactive) | > 100 µM (inactive) | > 100 µM (inactive) | > 100 µM (inactive) | > 100 µM (inactive) | > 100 µM (inactive) | > 100 µM (inactive) |  |  | > 100 µM (inactive) | > 100 µM (inactive) | > 100 µM (inactive) |  | > 100 µM (inactive)
9 | CCN(CC)C1CCC(C2c3cc4c(cc3OC(N3CCOCC3)C2C)OCO4)CC1 (centres undefined) | 18.4 µM (inactive) | 22.6 µM (inactive) | 11.4 µM (inactive) |  | 15.5 µM (inactive) | 16.7 µM (inactive) | 32.3 µM (inactive) | 10 µM (inactive) | > 29.2 µM (inactive) | 4.09 µM (inactive) | 61.8 µM (inactive) | 23.4 µM (inactive) |  | 36.9 µM (inactive) | > 100 µM (inactive) | 18.5 µM (inactive) | 13.7 µM (inactive) | > 100 µM (inactive) | 5.62 µM (inactive) | 37.1 µM (inactive)
10 | O=c1n(Cc2ccccc2)c(=O)n2c(=O)n(Cc3ccccc3)c(=O)n12 | > 100 µM (inactive) | > 100 µM (inactive) | > 100 µM (inactive) | > 100 µM (inactive) | > 100 µM (inactive) | > 100 µM (inactive) | > 100 µM (inactive) | > 100 µM (inactive) | > 100 µM (inactive) | > 100 µM (inactive) | > 100 µM (inactive) | > 100 µM (inactive) | > 100 µM (inactive) | > 100 µM (inactive) | > 100 µM (inactive) | > 100 µM (inactive) |  | > 100 µM (inactive) |  | > 100 µM (inactive)
11 | Cc1c2ccccc2c(C)n2c1nc1ccccc12 | 14.2 µM (inactive) | 83 µM (inactive) |  | 5.96 µM (inactive) | 7.16 µM (inactive) | 4.06 µM (inactive) | 4.65 µM (inactive) | 5.43 µM (inactive) | 5.2 µM (inactive) | 12.2 µM (inactive) | 12.5 µM (inactive) | 6.5 µM (inactive) | 11.6 µM (inactive) | 5.35 µM (inactive) |  | 18.5 µM (inactive) | 9.35 µM (inactive) | 9.89 µM (inactive) |  | 5.6 µM (inactive)
